Measurements from US11857601B2, “Pharmaceutical composition for cancer treatment comprising fusion protein including IL-2 protein and CD80 protein and anticancer drug” (GI INNOVATION, INC., priority 2020, dated 2024).

Columns and labels:
[1] = system: MDA-MB-231 cells; experiment: Cancer cell killing, GI-101 and Ribociclib, MDA-MB-231 with PBMCs; assay type: cell-based, human; settings: GI-101 100 nM, Ribociclib 913 nM, 24 hours, compared with co-culturing only cancer cells and PBMCs
From the text: This experiment was to evaluate the effect of killing cancer cells by treating MDA-MB-231 cells (human breast cancer cells) with the test substance GI-101 alone or in combination with Ribociclib substance in an in vitro environment.
(§1) MDA-MB-231 cells were purchased from the Korea cell line bank and cultured in RPMI1640 medium (Gibco) containing 10% FBS (Gibco) and 1% antibiotic/antifungal agent (Gibco). For use in cancer cell killing test, the cells were harvested using trypsin (Gibco), and then suspended in RPMI1640 medium, and then dead cells and debris were removed using Ficoll (GE Healthcare Life Sciences) solution. The cells suspended in RPMI1640 medium were carefully layered on ficoll solution. […]
(§2) In order to identify the effect of killing the cells, a CytoTox Green reagent ([…]™ CytoTox Green, Satorius) that binds to the DNA of cells to be killed was prepared in 1 μl per 1 mL of RPMI1640 medium containing 5% human AB serum (Sigma). The prepared medium was used for dilution of the test substance, and the effect of killing the cells could be quantitatively identified by staining the cells to be killed when the test substance was co-cultured with cancer cell lines and PBMCs. […]

[2] = system: 4T1 cells; experiment: mGI-101, anti-PD-L1 antibody and Docetaxel in 4T1 allotransplanted tumor model; assay type: in vivo, BALB/c mice
From the text: This experiment was to evaluate the anticancer efficacy according to administration of the test substance mGI-101 alone or in combination with Docetaxel (Selleck Chemicals, cat. no. S1148) and the anti-PD-L1 antibody (BioXcell, cat. no. BE0101) in a tumor model allotransplanted with 4T1 cells (mouse breast cancer cells) into BALB/c mice.
4T1 cells were purchased from ATCC (USA) and cultured in RPMI1640 medium (Gibco) containing 10% FBS (Gibco) and 1% antibiotic/antifungal agent (Gibco). The cultured cells were harvested using trypsin (Gibco), and then a cell suspension was prepare with PBS and stored on ice until injected into mice. In order to establish an allotransplanted tumor model, after identifying the location of the second mammary fat pad from the upper right of the ventral region of BALB/c female mice (8-week-old), 4T1 cell line prepared inside the mammary fat pad was injected at 4×10^4 cells/40 μl/head.
A certain period of time after cell inoculation of the tumor grafts of the mice, the tumor volume was measured for animals with no abnormalities in the health condition of the animals, and the subjects were selected so that the average of each group reached less than 70-100 mm^3, and the selected animals were assigned as evenly as possible based on tumor volume and body weight, each group including 10 animals.
Docetaxel was dissolved in 100% DMSO, and then the volume was adjusted with 5% of DMSO, 30% of PEG300, 5% of Tween 80, and 60% of distilled water for injection (DMSO PEG300: Tween 80: distilled water for injection=5%: 30%: 5%: 60% (v:v:v:v)) and prepared.
The Anti-PD-L1 antibody was prepared and administered using 1×PBS in consideration of dosage amount and volume. […]
The tumor volume before administration of each subject was set as the value measured at the time of grouping, and the anti-tumor efficacy was evaluated as compared with the vehicle control. […]

[3] = system: 4T1 cells; experiment: mGI-101 and Abemaciclib in 4T1 allotransplanted tumor model; assay type: in vivo, BALB/c mice; settings: 11 mice per group
Experimental: 4T1 cells were purchased from ATCC (USA) and cultured in RPMI1640 medium (Gibco) containing 10% FBS (Gibco) and 1% antibiotic/antifungal agent (Gibco). The cultured cells were harvested using trypsin (Gibco) and then suspended in PBS. In order to establish an allotransplanted tumor model, 1×10^5 of 4T1 cells were subcutaneously injected into the back of BALB/c female mice (8-week-old).
A certain period of time after cell inoculation of the tumor grafts of the mice, the tumor volume was measured for animals with no abnormalities in the health condition of the animals, and the mice were randomly selected and assigned, each group including 11 mice.
The death of the mouse, the type of general symptoms, the date of onset, and the severity of symptoms were observed once a day during the test period, and recorded for each subject.
The tumor volume before administration of each subject was set as the value measured at the time of grouping, and the anti-tumor efficacy was evaluated as compared with the vehicle control.
All statistical calculations were performed using Prism 8.0 (Graph Pad Software Inc, USA). The comparison of tumor volume measurements was made through two-way analysis of variance followed by Tukey's multiple comparison test. A p value of less than 0.05 was considered significant.

[4] = system: HCT116 cells; experiment: Cancer cell killing, GI-101 and Pertuzumab, HCT116 with NK cells; assay type: cell-based, human; settings: GI-101 0.4-100 nM, Pertuzumab 16.9 nM, 24 hours
From the text: This experiment was to evaluate the effect of killing cancer cells by treating HCT116 cells (human colon cancer cells) with the test substance GI-101 alone or in combination with Pertuzumab substance in an in vitro environment.
as §1, with “HCT116 cells” for “MDA-MB-231 cells”, “in McCoy's 5A” for “in RPMI1640”, “medium (ATCC)” for “medium (Gibco)”
as §2

[5] = system: MC38 cells; experiment: mGI-101 and DMXAA in MC38 allotransplanted tumor model; assay type: in vivo, C57BL/6 mice; settings: day 60 after tumor injection; mGI-101 6 mg/kg i.p. BIW, DMXAA 450 μg I.T.; 5 mice per group
Experimental: In order to establish an allotransplanted tumor model, 5×10^5 of MC38 cells were subcutaneously injected into C57BL/6 mice. The tumor grafts of the mice were identified to be a size of 100-200 mm^3 about day 10 after cell inoculation, and the mice were assigned, each group including 5 mice.
The size of the MC38 solid cancer was measured three times a week during the observation period, and the major axis (maximum length, L) and minor axis (perpendicular width, W) of the tumor were measured using a caliper, and the tumor volume (TV) was calculated by substituting them into the following equation, and once the tumor size was no less than 2 cm, the mice were sacrificed. TV (mm^3)=(W^2×L)/2 [Equation 1]

[6] = 4T1, end of the test, 10 animals per group

Compound: CN(C)C(=O)c1cc2cnc(Nc3ccc(N4CCNCC4)cn3)nc2n1C1CCCC1 [Ribociclib, reference compound]
- effect of killing cancer cells [1]: excellent effect of killing cancer cells

Compound: CC(=O)O[C@@]12CO[C@@H]1C[C@H](O)[C@@]1(C)C(=O)[C@H](O)C3=C(C)[C@@H](OC(=O)[C@H](O)[C@@H](NC(=O)OC(C)(C)C)c4ccccc4)C[C@@](O)([C@@H](OC(=O)c4ccccc4)[C@H]21)C3(C)C [Docetaxel]
- number of mice with tumor growth inhibition rate of 30% or more [2, 6]: 5 mice
- number of mice with tumor growth inhibition rate of 50% or more [2, 6]: 1 mice
- anticancer effect (tumor size) compared with the control ([2]; day 14, Docetaxel 15 mg/kg, mGI-101 3 mg/kg, aPD-L1 10 mg/kg i.p. QW): statistically significant anticancer effect

Compound: CCN1CCN(Cc2ccc(Nc3ncc(F)c(-c4cc(F)c5nc(C)n(C(C)C)c5c4)n3)nc2)CC1 [Abemaciclib, reference compound]
- number of mice with tumor growth inhibition rate of 30% or more [3]: 4 mice
- number of mice with tumor growth inhibition rate of 50% or more [3]: 1 mice
- number of mice with tumor growth inhibition rate of 80% or more [3]: 1 mice

Compound: Pertuzumab: Her2 inhibitor [reference compound]
- effect of killing cancer cells [4]: effect of killing cancer cells was not shown

Compound: Cc1ccc2c(=O)c3cccc(CC(=O)O)c3oc2c1C [DMXAA, reference compound]
- survival rate [5]: 60%
